# Results published in paper PMC6253991, “2-(3,4-Dihydro-4-Oxothieno[2,3-d]pyrimidin-2-ylthio) Acetamides as a New Class of Falcipain-2 Inhibitors. 3. Design, Synthesis and Biological Evaluation” (Molecules, 2009).
# Assays:
# [1] = biological target: T1, recombinant Falcipain-2 (FP-2) (Plasmodium falciparum, UniProt Q8I6U4); experiment: Falcipain-2 enzyme inhibition assay (fluorogenic substrate Z-Leu-Arg-AMC); format: biochemical; conditions: for IC50 / inhibition at 10 µM: FP-2 30 nM, pH 5.5, 30 min preincubation; for IC50: substrate Z-Leu-Arg-AMC 25 μM; for inhibition at 10 µM: pH 5.5, compound at 10 μM, substrate 25 μM, read-out: Inhibition rate at 10 μM (%)
# T1 construct: made in house
# T1 sequence (Q8I6U4 244-484): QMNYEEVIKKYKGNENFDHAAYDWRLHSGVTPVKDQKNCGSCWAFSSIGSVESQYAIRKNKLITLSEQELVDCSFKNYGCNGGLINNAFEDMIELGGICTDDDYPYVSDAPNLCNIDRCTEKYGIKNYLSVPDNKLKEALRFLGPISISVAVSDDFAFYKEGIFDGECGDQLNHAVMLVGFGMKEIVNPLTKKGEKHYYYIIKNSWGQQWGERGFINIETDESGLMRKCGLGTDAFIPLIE
# Method: For the primary assay, the percent inhibitions of the compounds at 10 μM were measured. […] Therefore, we determined their IC50 values (Table 1).
# The purification and refolding of recombinant protein Falcipain-2 was performed as described by Shenai et al. IC50 values against recombinant Falcipain-2 were determined as described previously. FP-2 (30 nM) was incubated for 30 min at room temperature in 100 mM sodium acetate, pH 5.5, 10 mM DTT, with different concentrations of tested inhibitors. Inhibitor solutions were prepared from stock in DMSO (maximum concentration of DMSO in the assay was 1%). After 30 min incubation, the substrate Z-Leu-Arg-AMC (benzoxycarbonyl-Leu-Arg-7-amino-4-methylcoumarin, Bachem AG) in the same buffer was added to a final concentration of 25 μM. The increase in fluorescence (excitation at 355 nm and emission at 460 nm) was monitored for 30 min at room temperature with an automated microtiter plate spectrofluorimeter (Molecular Devices, Flex station). Half-maximal inhibitory concentration (IC50) was determined from plots of percent activity over compound concentration using GraphPad Prism software.
SMILES,IC50 [1],inhibition at 10 µM [1],inhibitory activity relative to prototype compound 1 (times greater) ([1]; ratio of IC50s against FP-2 versus compound 1),melting point
"C=CCn1c(SCC(=O)Nc2sc3c(c2C(N)=O)CCC3)nc2scc(-c3ccccc3)c2c1=O [Compound 1, 2-(2-(3-Allyl-3,4-dihydro-4-oxo-5-phenylthieno[2,3-d]pyrimidin-2-ylthio)acetamido)-5,6-dihydro-4H-cyclopenta[b]thiophene-3-carboxamide]",2.81 µM,88.7%,,
"NC(=O)c1c(NC(=O)CSc2nc3scc(-c4ccccc4)c3c(=O)n2C2CCCCC2)sc2c1CCC2 [Compound 2a, 2-(2-(3-Cyclohexyl-3,4-dihydro-4-oxo-5-phenylthieno[2,3-d]pyrimidin-2-ylthio)acetamido)-5,6-dihydro-4H-cyclopenta[b]thiophene-3-carboxamide]",1.46 µM,> 90%,~ 2 times,
NC(=O)c1c(NC(=O)CSc2nc3scc(-c4ccccc4)c3c(=O)n2-c2cccc(F)c2)sc2c1CCC2 [Compound 2b],2.05 µM,79%,,234 to 239 °C
NC(=O)c1c(NC(=O)CSc2nc3scc(-c4ccccc4)c3c(=O)n2-c2ccc([N+](=O)[O-])cc2)sc2c1CCC2 [Compound 2c],2.77 µM,85.4%,,271 to 274 °C
NC(=O)c1c(NC(=O)CSc2nc3scc(-c4ccccc4)c3c(=O)n2-c2ccc(Cl)cc2)sc2c1CCC2 [Compound 2d],4.3 µM,84.7%,,247 to 249 °C
NC(=O)c1c(NC(=O)CSc2nc3scc(-c4ccccc4)c3c(=O)n2Cc2ccccc2)sc2c1CCC2 [Compound 2e],5.74 µM,> 90%,,163 to 167 °C
C=CCn1c(SCC(=O)Nc2sc3c(c2C(N)=O)CCC3)nc2sc3c(c2c1=O)CCCC3 [Compound 3a],5.77 µM,82.2%,,
"C=CCn1c(SCC(=O)Nc2sc3c(c2C(N)=O)CCC3)nc2scc(-c3ccc(Cl)cc3)c2c1=O [Compound 3b, 2-(2-(3-Allyl-3,4-dihydro-4-oxo-5-(4-chlorophenyl)thieno[2,3-d]pyrimidin-2-ylthio)acetamido)-5,6-dihydro-4H-cyclopenta[b]thiophene-3-carboxamide]",2.95 µM,85.7%,,
"C=CCn1c(SCC(=O)Nc2sc3c(c2C(N)=O)CCC3)nc2scc(-c3cccc([N+](=O)[O-])c3)c2c1=O [Compound 3c, 2-(2-(3-Allyl-3,4-dihydro-4-oxo-5-(3-nitrophenyl)thieno[2,3-d]pyrimidin-2-ylthio)acetamido)-5,6-dihydro-4H-cyclopenta[b]thiophene-3-carboxamide]",,53%,,
"C=CCn1c(SCC(=O)Nc2sc3c(c2C(=O)OCC)CCC3)nc2scc(-c3ccccc3)c2c1=O [Compound 4a, Ethyl 2-(2-(3-allyl-3,4-dihydro-4-oxo-5-phenylthieno[2,3-d]pyrimidin-2-ylthio)acetamido)-5,6-dihydro-4H-cyclopenta[b]thiophene-3-carboxylate]",6.63 µM,93.3%,,166 to 170 °C
"C=CCn1c(SCC(=O)Nc2ccc(C(=O)OCC)cc2)nc2scc(-c3ccccc3)c2c1=O [Compound 4b, Ethyl 4-(2-(3-allyl-3,4-dihydro-4-oxo-5-phenylthieno[2,3-d]pyrimidin-2-ylthio)acetamido) benzoate]",5.7 µM,94.3%,,
"C=CCn1c(SCC(=O)Nc2nc3ccccc3s2)nc2scc(-c3ccccc3)c2c1=O [Compound 4c, 2-(3-Allyl-3,4-dihydro-4-oxo-5-phenylthieno[2,3-d]pyrimidin-2-ylthio)-N-(benzo[d]thiazol-2-yl)-acetamide]",3.31 µM,90.3%,,192 to 194 °C
"C=CCn1c(SCC(=O)Nc2sc3c(c2C(N)=O)CCCC3)nc2scc(-c3ccccc3)c2c1=O [Compound 4d, 2-(2-(3-Alyl-3,4-dihydro-4-oxo-5-phenylthieno[2,3-d]pyrimidin-2-ylthio)acetamido)-4,5,6,7-tetra-hydrobenzo[b]thiophene-3-carboxamide]",,,,212 to 214 °C
"C=CCn1c(SCC(=O)Nc2sc(C(=O)OCC)c(C)c2C(N)=O)nc2scc(-c3ccccc3)c2c1=O [Compound 4e, Ethyl 5-(2-(3-allyl-3,4-dihydro-4-oxo-5-phenylthieno[2,3-d]pyrimidin-2-ylthio)acetamido)-4-carbamoyl-3-methylthiophene-2-carboxylate]",5.58 µM,72%,,136 to 140 °C
"C=CCn1c(SCC(=O)Nc2ccc(F)c(Cl)c2)nc2scc(-c3ccccc3)c2c1=O [Compound 4f, 2-(3-Allyl-3,4-dihydro-4-oxo-5-phenylthieno[2,3-d]pyrimidin-2-ylthio)-N-(3-chloro-4-fluorophenyl)-acetamide]",5.43 µM,> 90%,,
